Toxic doses and inconclusive results are not listed. Rule for the calls: active = survival T/C of 150% or more; inactive = T/C below 125% in these data.
Test system: CD2F1 mice, L1210 leukemia ip, survival T/C
Assay: NCI In Vivo Anticancer Drug Screen. Data for tumor model L1210 Leukemia (intraperitoneal) in CD2F1 (CDF1) mice
Conditions: higher = longer survival
Procedure, shortened: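 Vehicle-treated tumor-bearing mice served as controls (C) for compound-treated mice (T). Reported figure is T divided by C.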

[1] = endpoint: mean survival time, dose: 100.0 mg/kg/injection, schedule: Q01DX009 (ip), vehicle: saline with Tween-80
[2] = endpoint: mean survival time, dose: 200.0 mg/kg/injection, schedule: Q01DX009 (ip), vehicle: saline with Tween-80
[3] = endpoint: mean survival time, dose: 50.0 mg/kg/injection, schedule: Q01DX009 (ip), vehicle: saline with Tween-80

Measured: T/C

CN(C)c1ccc(/C=C/c2ccnc3ccccc23)cc1
inactive: endpoint: mean survival time, dose: 12.5 mg/kg/injection, schedule: Q01DX Z (ip), vehicle: saline 103 % of control | endpoint: mean survival time, dose: 16.0 mg/kg/injection, schedule: Q01DX008 (iv), vehicle: saline 100 % of control | endpoint: mean survival time, dose: 25.0 mg/kg/injection, schedule: Q01DX Z (ip), vehicle: saline 103 % of control | endpoint: mean survival time, dose: 32.0 mg/kg/injection, schedule: Q01DX008 (iv), vehicle: saline 100 % of control | endpoint: mean survival time, dose: 50.0 mg/kg/injection, schedule: Q01DX Z (ip), vehicle: saline 103 % of control | endpoint: mean survival time, dose: 64.0 mg/kg/injection, schedule: Q01DX008 (iv), vehicle: saline 102 % of control

O=c1[nH]c(=O)n(C2OC(CO)C(O)C2O)o1 (stereo not drawn)
inactive: endpoint: mean survival time, dose: 12.5 mg/kg/injection, schedule: Q01DX005 (ip), vehicle: water 93 % of control | endpoint: mean survival time, dose: 25.0 mg/kg/injection, schedule: Q01DX005 (ip), vehicle: water 101 % of control | endpoint: mean survival time, dose: 50.0 mg/kg/injection, schedule: Q01DX005 (ip), vehicle: water 90 % of control | endpoint: mean survival time, dose: 100.0 mg/kg/injection, schedule: Q01DX005 (ip), vehicle: water 98 % of control | endpoint: mean survival time, dose: 200.0 mg/kg/injection, schedule: Q01DX005 (ip), vehicle: water 96 % of control

CCOP(=O)(OCC)C(C)c1ccccc1 (stereo not drawn)
inactive: [1] 100 % of control | [2] 94 % of control

CCC(=O)c1ccccc1N
inactive: endpoint: mean survival time, dose: 100.0 mg/kg/injection, schedule: Q04DX003 (ip), vehicle: saline with Tween-80 90 % of control | endpoint: mean survival time, dose: 200.0 mg/kg/injection, schedule: Q04DX003 (ip), vehicle: saline with Tween-80 105 % of control | endpoint: mean survival time, dose: 400.0 mg/kg/injection, schedule: Q04DX003 (ip), vehicle: saline with Tween-80 97 % of control

Cc1ccc(NC(=O)Oc2cc(C)c(Cl)c(C)c2Cl)c(C)c1
inactive: [3] 89 % of control | [1] 101 % of control | [2] 104 % of control

CN(C)CC(=O)c1ccc(O)c(O)c1
inactive: endpoint: mean survival time, dose: 16.0 mg/kg/injection, schedule: Q03HX008 (ip), vehicle: saline 95 % of control | endpoint: mean survival time, dose: 16.0 mg/kg/injection, schedule: Q03HX016 (ip), vehicle: saline 97 % of control | endpoint: mean survival time, dose: 32.0 mg/kg/injection, schedule: Q03HX008 (ip), vehicle: saline 96 % of control | endpoint: mean survival time, dose: 32.0 mg/kg/injection, schedule: Q03HX016 (ip), vehicle: saline 106 % of control | endpoint: mean survival time, dose: 64.0 mg/kg/injection, schedule: Q01DX009 (sc), vehicle: saline 86 % of control | endpoint: mean survival time, dose: 64.0 mg/kg/injection, schedule: Q03HX008 (ip), vehicle: saline 110 % of control | endpoint: mean survival time, dose: 64.0 mg/kg/injection, schedule: Q03HX016 (ip), vehicle: saline 111 % of control | endpoint: mean survival time, dose: 64.0 mg/kg/injection, schedule: Q04DX003 (ip), vehicle: saline 101 % of control | endpoint: mean survival time, dose: 128.0 mg/kg/injection, schedule: Q01DX001 (oral), vehicle: saline 98 % of control | endpoint: mean survival time, dose: 128.0 mg/kg/injection, schedule: Q01DX001 (sc), vehicle: saline 98 % of control | endpoint: mean survival time, dose: 128.0 mg/kg/injection, schedule: Q01DX009 (oral), vehicle: saline 93 % of control | endpoint: mean survival time, dose: 128.0 mg/kg/injection, schedule: Q01DX009 (sc), vehicle: saline 86 % of control | endpoint: mean survival time, dose: 128.0 mg/kg/injection, schedule: Q03HX008 (ip), vehicle: saline 118 % of control | endpoint: mean survival time, dose: 128.0 mg/kg/injection, schedule: Q03HX016 (ip), vehicle: saline 122 % of control | endpoint: mean survival time, dose: 128.0 mg/kg/injection, schedule: Q04DX003 (ip), vehicle: saline 107 % of control | endpoint: mean survival time, dose: 128.0 mg/kg/injection, schedule: Q08DX002 (ip), vehicle: saline 105 % of control | endpoint: mean survival time, dose: 256.0 mg/kg/injection, schedule: Q01DX001 (oral), vehicle: saline 101 % of control | endpoint: mean survival time, dose: 256.0 mg/kg/injection, schedule: Q01DX001 (sc), vehicle: saline 96 % of control | endpoint: mean survival time, dose: 256.0 mg/kg/injection, schedule: Q01DX009 (oral), vehicle: saline 92 % of control | endpoint: mean survival time, dose: 256.0 mg/kg/injection, schedule: Q01DX009 (sc), vehicle: saline 86 % of control | endpoint: mean survival time, dose: 256.0 mg/kg/injection, schedule: Q04DX003 (ip), vehicle: saline 107 % of control | endpoint: mean survival time, dose: 256.0 mg/kg/injection, schedule: Q08DX002 (ip), vehicle: saline 103 % of control | endpoint: mean survival time, dose: 512.0 mg/kg/injection, schedule: Q01DX001 (oral), vehicle: saline 98 % of control | endpoint: mean survival time, dose: 512.0 mg/kg/injection, schedule: Q01DX001 (sc), vehicle: saline 95 % of control | endpoint: mean survival time, dose: 512.0 mg/kg/injection, schedule: Q01DX009 (oral), vehicle: saline 91 % of control | endpoint: mean survival time, dose: 512.0 mg/kg/injection, schedule: Q01DX009 (sc), vehicle: saline 86 % of control | endpoint: mean survival time, dose: 512.0 mg/kg/injection, schedule: Q04DX003 (ip), vehicle: saline 107 % of control | endpoint: mean survival time, dose: 512.0 mg/kg/injection, schedule: Q08DX002 (ip), vehicle: saline 105 % of control | endpoint: mean survival time, dose: 1024.0 mg/kg/injection, schedule: Q01DX001 (oral), vehicle: saline 96 % of control | endpoint: mean survival time, dose: 1024.0 mg/kg/injection, schedule: Q01DX001 (sc), vehicle: saline 107 % of control | endpoint: mean survival time, dose: 1024.0 mg/kg/injection, schedule: Q01DX009 (oral), vehicle: saline 93 % of control | endpoint: mean survival time, dose: 1024.0 mg/kg/injection, schedule: Q08DX002 (ip), vehicle: saline 110 % of control

CN(CC#CCOc1ccc(Br)cc1)c1ccccc1
inactive: [1] 103 % of control | [2] 100 % of control | endpoint: mean survival time, dose: 400.0 mg/kg/injection, schedule: Q01DX009 (ip), vehicle: saline with Tween-80 97 % of control

Cc1cc(C)c(COCc2cc(C)c(C)cc2C)cc1C
inactive: endpoint: mean survival time, dose: 25.0 mg/kg/injection, schedule: Q01DX009 (ip), vehicle: water 97 % of control | endpoint: mean survival time, dose: 50.0 mg/kg/injection, schedule: Q01DX009 (ip), vehicle: water 86 % of control | endpoint: mean survival time, dose: 100.0 mg/kg/injection, schedule: Q01DX009 (ip), vehicle: water 92 % of control | endpoint: mean survival time, dose: 200.0 mg/kg/injection, schedule: Q01DX009 (ip), vehicle: water 101 % of control | endpoint: mean survival time, dose: 400.0 mg/kg/injection, schedule: Q01DX009 (ip), vehicle: water 103 % of control

CCOC(=O)/C(=C/[N-]c1ccccc1[N-]/C=C(\C(C)=O)C(=O)OCC)C(C)=O.[Pt+2]
inactive: endpoint: median survival time, dose: 10.0 mg/kg/injection, schedule: Q04DX003 (ip), vehicle: saline with Tween-80 98 % of control | endpoint: median survival time, dose: 20.0 mg/kg/injection, schedule: Q04DX003 (ip), vehicle: saline with Tween-80 96 % of control | endpoint: median survival time, dose: 40.0 mg/kg/injection, schedule: Q04DX003 (ip), vehicle: saline with Tween-80 89 % of control | endpoint: median survival time, dose: 50.0 mg/kg/injection, schedule: Q04DX003 (ip), vehicle: saline with Tween-80 96 % of control | endpoint: median survival time, dose: 80.0 mg/kg/injection, schedule: Q04DX003 (ip), vehicle: saline with Tween-80 101 % of control | endpoint: median survival time, dose: 100.0 mg/kg/injection, schedule: Q04DX003 (ip), vehicle: saline with Tween-80 97 % of control | endpoint: median survival time, dose: 200.0 mg/kg/injection, schedule: Q04DX003 (ip), vehicle: saline with Tween-80 101 % of control

C[n+]1c(/C=C/c2ccccc2Cl)ccc2ccccc21
inactive: endpoint: mean survival time, dose: 12.5 mg/kg/injection, schedule: Q01DX009 (ip), vehicle: saline with Tween-80 94 % of control | endpoint: mean survival time, dose: 25.0 mg/kg/injection, schedule: Q01DX009 (ip), vehicle: saline with Tween-80 100 % of control | [3] 96 % of control | endpoint: mean survival time, dose: 50.0 mg/kg/injection, schedule: Q04DX003 (ip), vehicle: saline with Tween-80 95 % of control

CCOC(=O)c1oc(C)nc1C
inactive: endpoint: mean survival time, dose: 12.5 mg/kg/injection, schedule: Q01DX001 (ip), vehicle: Klucel (hydroxypropylcellulose) (HPC) 90 % of control | endpoint: mean survival time, dose: 25.0 mg/kg/injection, schedule: Q01DX001 (ip), vehicle: Klucel (hydroxypropylcellulose) (HPC) 104 % of control | endpoint: mean survival time, dose: 50.0 mg/kg/injection, schedule: Q01DX001 (ip), vehicle: Klucel (hydroxypropylcellulose) (HPC) 98 % of control | endpoint: mean survival time, dose: 100.0 mg/kg/injection, schedule: Q01DX001 (ip), vehicle: Klucel (hydroxypropylcellulose) (HPC) 101 % of control | endpoint: mean survival time, dose: 200.0 mg/kg/injection, schedule: Q01DX001 (ip), vehicle: Klucel (hydroxypropylcellulose) (HPC) 98 % of control

Cc1cn(C2CC(O)C(CO)O2)c(=O)nc1NCc1cccs1 (stereo not drawn)
inactive: endpoint: median survival time, dose: 12.5 mg/kg/injection, schedule: Q01DX005 (ip), vehicle: water 103 % of control | endpoint: median survival time, dose: 25.0 mg/kg/injection, schedule: Q01DX005 (ip), vehicle: water 105 % of control | endpoint: median survival time, dose: 50.0 mg/kg/injection, schedule: Q01DX005 (ip), vehicle: water 106 % of control | endpoint: median survival time, dose: 100.0 mg/kg/injection, schedule: Q01DX005 (ip), vehicle: water 101 % of control | endpoint: median survival time, dose: 200.0 mg/kg/injection, schedule: Q01DX005 (ip), vehicle: water 103 % of control

CCOC(=O)Cc1c(C)[nH]c2c(Br)cc(C)c(C)c12
inactive: endpoint: mean survival time, dose: 100.0 mg/kg/injection, schedule: Q01DX001 (ip), vehicle: other 98 % of control | endpoint: mean survival time, dose: 200.0 mg/kg/injection, schedule: Q01DX001 (ip), vehicle: other 89 % of control | endpoint: mean survival time, dose: 400.0 mg/kg/injection, schedule: Q01DX001 (ip), vehicle: other 110 % of control

Source: PubChem BioAssay AID256 (DTP/NCI, 2004)
